Laboratory results: US20250042886A1, “BIS(HETERO)ARYL THIOETHER OXADIAZINES AS FUNGICIDAL COMPOUNDS” (Bayer Aktiengesellschaft, priority 2021, published 2025)

What was measured:
[1] = test system: Colletotrichum lindemuthianum; assay: Colletotrichum lindemuthianum in vitro cell test; format: cell-based; conditions: 144 h, 20 ppm of active ingredient, liquid culture, 6 days incubation, read-out: efficacy (inhibition of fungal growth)
Outline: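 C. lindemuthianum spores in liquid glucose–peptone–yeast extract medium were exposed to compounds dissolved in DMSO. After 6 days, mycelial growth was measured by absorbance, and inhibition was calculated against compound-free control wells.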

[2] = test system: Botrytis cinerea; assay: Botrytis cinerea in vitro cell test; format: cell-based; conditions: 144 h, 20 ppm of active ingredient, liquid culture, 6 days incubation, read-out: efficacy (inhibition of fungal growth)
Outline: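 Compounds from DMSO stocks added at a range of concentrations to a defined mineral-salt/sucrose liquid medium inoculated with B. cinerea spores. After 6 days' incubation, mycelium growth was read by absorbance; inhibition of germination and growth was calculated against fungicide-free control wells.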

[3] = test system: Botrytis cinerea; assay: In vivo preventive test on Botrytis cinerea (grey mould); conditions: 500 ppm of active ingredient, sprayed on young gherkin or cabbage plants 24 h before inoculation, evaluated 4 to 5 days after inoculation, read-out: efficacy
Outline: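 Compounds in DMSO/acetone/Tween 80 were diluted in water and sprayed onto young gherkin or cabbage plants; controls got solvent only. After 24 h, leaves were sprayed with an aqueous Botrytis cinerea spore suspension.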

[4] = test system: Sphaerotheca fuliginea; assay: In vivo preventive test on Sphaerotheca fuliginea (powdery mildew on cucurbits); conditions: Podosphaera fuliginea, 192 h; 500 ppm of active ingredient, sprayed on young gherkin plants 24 h before inoculation; evaluated 8 days after inoculation; read-out: efficacy
Experimental: (§1) B-3. […] The active ingredients were made soluble and homogenized in a mixture of Dimethyl sulfoxide/Acetone//Tween® 80 and then diluted in water to the desired concentration. The young plants of gherkin were treated by spraying the active ingredient prepared as described above. Control plants were treated only with an aqueous solution of Acetone/Dimethyl sulfoxide/Tween® 80. After 24 hours, the plants were contaminated by spraying the leaves with an aqueous suspension of Sphaerotheca fuliginea spores.

[5] = test system: Pyricularia oryzae; assay: microbe, parasite or virus in culture; format: cell-based; conditions: 120 h, read-out: efficacy (inhibition of fungal growth), 20 ppm of active ingredient, liquid culture, 5 days incubation
[6] = Measurement of Log P values by HPLC on reversed phase columns (EEC directive 79/831 Annex V.A8); format: physicochemical; conditions: Table 1, compounds of formula (I); method [a]: LC-UV, acidic range, 0.1% formic acid in water and acetonitrile
[7] = test system: Colletotrichum lindemuthianum; assay: In vivo preventive test on Colletotrichum lindemuthianum (leaf spot on bean); conditions: 168 h, 500 ppm of active ingredient, sprayed on young bean plants 24 h before inoculation, evaluated 7 days after inoculation, read-out: efficacy
Experimental: as §1, with “B-4.” for “B-3.”, “bean” for “gherkin”, “Colletotrichum lindemuthianum” for “Sphaerotheca fuliginea”

[8] = test system: Septoria tritici; assay: Septoria tritici in vitro cell test; format: cell-based; conditions: Zymoseptoria tritici, 168 h; 20 ppm of active ingredient; liquid culture, 7 days incubation; read-out: efficacy (inhibition of fungal growth)
Experimental: B-11. Septoria tritici In Vitro Cell Test • Solvent: DMSO • Culture medium: 1 g KH2PO4 (VWR), 1 g K2HPO4 (VWR), 0.5 g Urea (VWR), 3 g KNO3 (Prolabo), 10 g saccharose (VWR), 0.5 g MgSO4, 7H2O (Sigma), 0.07 g CaCl2, 2H2O (Prolabo), 0.2 mg MnSO4, H2O (Sigma), 0.6 mg CuSO4, 5H2O (Sigma), 7.9 mg ZnSO4, 7H2O (Sigma), 0.1 mg H3BO3 (Merck), 0.14 mg NaMoO4, 2H2O (Sigma), 2 mg thiamine (Sigma), 0.1 mg biotine (VWR), 4 mg FeSO4, 7H2O (Sigma), QSP 1 liter • Inoculum: spore suspension Fungicides were solubilized in DMSO and the solution used to prepare the required range of concentrations. […] A spore suspension of S. tritici was prepared and diluted to the desired spore density. Fungicides were evaluated for their ability to inhibit spore germination and mycelium growth in liquid culture assay. The compounds were added in the desired concentration to the culture medium with spores. […] Inhibition of fungal growth was determined by comparing the absorbance values in wells containing the fungicides with the absorbance in control wells without fungicides.

[9] = test system: Pyrenophora teres; assay: Pyrenophora teres in vitro cell test; format: cell-based; conditions: 144 h, 20 ppm of active ingredient, liquid culture, 6 days incubation, read-out: efficacy (inhibition of fungal growth)
Outline: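 Compounds in DMSO were added to P. teres spore suspensions in glucose/peptone/yeast-extract liquid medium, testing inhibition of spore germination and mycelium growth. After 6 days, mycelium growth was read by absorbance. Inhibition was calculated relative to fungicide-free control wells.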

[10] = test system: Fusarium culmorum; assay: Fusarium culmorum in vitro cell test; format: cell-based; conditions: 120 h, 20 ppm of active ingredient, liquid culture, 5 days incubation, read-out: efficacy (inhibition of fungal growth)
Outline: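 Spores in liquid mineral-salts/saccharose medium exposed to compounds (DMSO ≤1% final) for 5 days. Mycelium growth measured spectrometrically, with inhibition derived from absorbance relative to fungicide-free control wells.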

[11] = test system: Alternaria brassicae; assay: In vivo preventive test on Alternaria brassicae (leaf spot on radish or cabbage); conditions: 500 ppm of active ingredient, sprayed on young radish or cabbage plants 24 h before inoculation, evaluated 3 to 4 days after inoculation, read-out: efficacy
Outline: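 Young radish or cabbage plants sprayed preventively with compound formulated in DMSO/acetone/Tween 80 and diluted in water; vehicle-treated plants as controls. Leaves inoculated by spraying an aqueous Alternaria brassicae spore suspension 24 h after treatment.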

[12] = test system: Alternaria alternata; assay: Alternaria alternata in vitro cell test; format: cell-based; conditions: 120 h, 20 ppm of active ingredient, liquid culture, 5 days incubation, read-out: efficacy (inhibition of fungal growth)
Outline: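 Spores in glucose/mycological peptone/yeast extract liquid medium were exposed to DMSO-dissolved fungicides for 5 days. Inhibition of germination and mycelial growth was read spectrophotometrically, comparing absorbance against fungicide-free control wells.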

Compound	inhibition at 20 ppm [1]	inhibition at 20 ppm [2]	pest or weed control at 500 ppm [3]	pest or weed control at 500 ppm [4]	inhibition at 20 ppm [5]	chromatographic logP [6]	pest or weed control at 500 ppm [7]	inhibition at 20 ppm [8]	inhibition at 20 ppm [9]	inhibition at 20 ppm [10]	pest or weed control at 500 ppm [11]	inhibition at 20 ppm [12]
Clc1ccc(C[C@@H]2CON=C(c3cc(Cl)nnc3Sc3cccc(Br)c3)N2)c(Cl)c1 (racemic) [Compound I-005]	90 to 100%	90 to 100%	90 to 100%	80 to 89%	90 to 100%	4.88						
Cc1ccc(C[C@H]2CON=C(c3nc(C)ncc3Sc3cccc(C(F)(F)F)c3)N2)c(C)c1 (racemic) [Compound I-007]	90 to 100%	90 to 100%	90 to 100%	90 to 100%	70 to 79%	5.21	90 to 100%	80 to 89%	90 to 100%			
Cc1cccc(Sc2cnc(C)nc2C2=NOC[C@@H](Cc3ccc(C)cc3Cl)N2)c1 (racemic) [Compound I-010]	90 to 100%		90 to 100%	90 to 100%		5.17	90 to 100%	90 to 100%	90 to 100%	90 to 100%	80 to 89%	
Cc1ccc(C[C@H]2CON=C(c3nc(C)ncc3Sc3cccc(C(F)(F)F)c3)N2)c(Cl)c1 (racemic) [Compound I-013]	90 to 100%	90 to 100%	90 to 100%	90 to 100%		5.28	90 to 100%	90 to 100%			80 to 89%	
Cc1ccc(CC2CON=C(c3cc(Cl)nnc3Sc3cccc(C(F)(F)F)c3)N2)c(C)c1 (racemic) [Compound I-017, (5RS)-3-(6-chloro-3-{[3-(trifluoromethyl)phenyl]sulfanyl}pyridazin-4-yl)-5-(2,4-dimethylbenzyl)-5,6-dihydro-4H-1,2,4-oxadiazine]	90 to 100%	90 to 100%	90 to 100%	90 to 100%	80 to 89%	5.27	90 to 100%	90 to 100%			90 to 100%	80 to 89%
FC(F)(F)c1ccc(Sc2nnc(Cl)cc2C2=NOC[C@@H](Cc3ccc(Br)cc3Cl)N2)cc1 (racemic) [Compound I-035]			90 to 100%	80 to 89%		5	90 to 100%					
